Consider four molecules from article PMC3000536 (Tetrahedron letters, 2011).

In general, IC50 refers to the concentration that inhibits the measured activity by half.

Entries after “also recorded” stand apart in the source; their conditions may differ.

The target of assay [1] is Bovine liver β-Galactosidase. Kind of assay: Glycosidase inhibition, bovine liver β-galactosidase. The class given is biochemical. The settings on record: read-out: IC50 β-Galactosidase Bovine liver.
Assay [2] addresses F508del-CFTR (Homo sapiens, UniProt P13569, DEL508-508). Kind of assay: CFTR function in CF-KM4 cells by single-cell fluorescence imaging. Format: cell-based.
Assay [3] deals with T1, Jack beans α-Mannosidase (Canavalia ensiformis, UniProt C0HJB3).
T1 sequence (C0HJB3 1-981): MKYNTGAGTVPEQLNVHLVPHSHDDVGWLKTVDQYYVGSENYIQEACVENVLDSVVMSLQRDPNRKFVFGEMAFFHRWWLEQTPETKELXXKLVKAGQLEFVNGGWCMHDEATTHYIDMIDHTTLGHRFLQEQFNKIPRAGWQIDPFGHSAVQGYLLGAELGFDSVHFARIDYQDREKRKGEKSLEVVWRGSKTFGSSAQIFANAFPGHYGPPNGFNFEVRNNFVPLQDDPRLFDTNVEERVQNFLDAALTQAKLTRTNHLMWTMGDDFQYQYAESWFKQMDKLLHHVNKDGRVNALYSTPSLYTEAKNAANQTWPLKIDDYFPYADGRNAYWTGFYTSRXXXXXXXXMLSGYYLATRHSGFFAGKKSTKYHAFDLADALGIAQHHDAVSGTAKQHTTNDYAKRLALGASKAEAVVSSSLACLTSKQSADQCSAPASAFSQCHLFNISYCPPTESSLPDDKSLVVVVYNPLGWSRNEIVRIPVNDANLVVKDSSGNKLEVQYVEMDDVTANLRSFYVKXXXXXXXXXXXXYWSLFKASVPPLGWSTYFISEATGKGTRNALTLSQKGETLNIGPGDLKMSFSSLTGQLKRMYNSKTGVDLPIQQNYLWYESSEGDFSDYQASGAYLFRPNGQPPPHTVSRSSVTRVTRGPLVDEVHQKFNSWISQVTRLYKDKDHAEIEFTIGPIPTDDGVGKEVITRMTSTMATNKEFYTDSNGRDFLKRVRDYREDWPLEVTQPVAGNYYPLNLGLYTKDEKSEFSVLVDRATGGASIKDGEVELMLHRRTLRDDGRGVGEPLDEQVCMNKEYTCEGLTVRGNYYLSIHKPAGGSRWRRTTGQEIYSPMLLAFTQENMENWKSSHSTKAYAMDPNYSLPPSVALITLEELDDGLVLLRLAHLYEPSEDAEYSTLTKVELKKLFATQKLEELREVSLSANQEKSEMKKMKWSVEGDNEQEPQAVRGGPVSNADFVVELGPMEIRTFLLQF
The assay is described as follows: Glycosidase inhibition, jack beans α-mannosidase. Format: biochemical.

Assay [4] addresses T2, Rabbit muscle Glycogen phosphorylase (Oryctolagus cuniculus, UniProt P00489).
T2 sequence (P00489 1-843): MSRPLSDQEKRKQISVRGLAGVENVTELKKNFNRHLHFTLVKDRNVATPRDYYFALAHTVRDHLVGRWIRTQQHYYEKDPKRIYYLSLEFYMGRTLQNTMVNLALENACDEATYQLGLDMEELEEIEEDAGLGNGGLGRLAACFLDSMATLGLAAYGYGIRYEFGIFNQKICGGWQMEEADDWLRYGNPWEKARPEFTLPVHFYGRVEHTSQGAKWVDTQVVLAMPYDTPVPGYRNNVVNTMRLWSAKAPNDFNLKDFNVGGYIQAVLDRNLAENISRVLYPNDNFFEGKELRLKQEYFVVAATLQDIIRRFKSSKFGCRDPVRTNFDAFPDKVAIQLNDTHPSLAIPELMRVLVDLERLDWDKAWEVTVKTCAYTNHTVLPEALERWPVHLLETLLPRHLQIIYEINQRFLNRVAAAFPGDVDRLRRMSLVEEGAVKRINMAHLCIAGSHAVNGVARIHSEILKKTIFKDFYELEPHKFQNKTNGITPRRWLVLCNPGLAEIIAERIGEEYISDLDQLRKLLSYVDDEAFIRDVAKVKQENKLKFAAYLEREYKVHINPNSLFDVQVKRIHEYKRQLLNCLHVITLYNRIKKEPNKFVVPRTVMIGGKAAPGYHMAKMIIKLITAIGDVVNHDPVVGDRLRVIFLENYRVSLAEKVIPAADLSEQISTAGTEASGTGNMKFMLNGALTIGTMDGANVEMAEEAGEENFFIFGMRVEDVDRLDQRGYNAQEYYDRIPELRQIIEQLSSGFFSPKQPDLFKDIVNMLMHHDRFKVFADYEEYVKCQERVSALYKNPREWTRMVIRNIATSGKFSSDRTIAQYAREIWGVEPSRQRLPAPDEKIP
The assay is described as follows: Glycogen phosphorylase inhibition, rabbit muscle. The class given is biochemical.

Assay [5] deals with Almond β-Glucosidase. The assay is described as follows: Glycosidase inhibition, almond β-glucosidase. The class given is biochemical. The conditions noted are these: read-out: IC50 β-Glucosidase Almond.
The target in assay [6] is Rat intestinal maltase. The assay is described as follows: Glycosidase inhibition, rat intestinal maltase. Format: biochemical. The conditions noted are these: read-out: IC50 α-Glucosidase Rat intestinal maltase.
In assay [7] the target is Rice α-Glucosidase (Oryza sativa subsp. japonica, UniProt Q653V7). Kind of assay: Glycosidase inhibition, rice α-glucosidase. Format: biochemical.
For assay [8], the target named is Rat intestinal isomaltase (Rattus norvegicus, UniProt P23739). Kind of assay: Glycosidase inhibition, rat intestinal isomaltase. Format: biochemical.
Assay [9] has as its system ER glucosidases. The settings on record: cited from earlier work.
In assay [10] the test system is F508del-CFTR. The conditions noted are these: ref viii; cited from earlier work.

Rat intestinal isomaltase, sequence (P23739 whole entry): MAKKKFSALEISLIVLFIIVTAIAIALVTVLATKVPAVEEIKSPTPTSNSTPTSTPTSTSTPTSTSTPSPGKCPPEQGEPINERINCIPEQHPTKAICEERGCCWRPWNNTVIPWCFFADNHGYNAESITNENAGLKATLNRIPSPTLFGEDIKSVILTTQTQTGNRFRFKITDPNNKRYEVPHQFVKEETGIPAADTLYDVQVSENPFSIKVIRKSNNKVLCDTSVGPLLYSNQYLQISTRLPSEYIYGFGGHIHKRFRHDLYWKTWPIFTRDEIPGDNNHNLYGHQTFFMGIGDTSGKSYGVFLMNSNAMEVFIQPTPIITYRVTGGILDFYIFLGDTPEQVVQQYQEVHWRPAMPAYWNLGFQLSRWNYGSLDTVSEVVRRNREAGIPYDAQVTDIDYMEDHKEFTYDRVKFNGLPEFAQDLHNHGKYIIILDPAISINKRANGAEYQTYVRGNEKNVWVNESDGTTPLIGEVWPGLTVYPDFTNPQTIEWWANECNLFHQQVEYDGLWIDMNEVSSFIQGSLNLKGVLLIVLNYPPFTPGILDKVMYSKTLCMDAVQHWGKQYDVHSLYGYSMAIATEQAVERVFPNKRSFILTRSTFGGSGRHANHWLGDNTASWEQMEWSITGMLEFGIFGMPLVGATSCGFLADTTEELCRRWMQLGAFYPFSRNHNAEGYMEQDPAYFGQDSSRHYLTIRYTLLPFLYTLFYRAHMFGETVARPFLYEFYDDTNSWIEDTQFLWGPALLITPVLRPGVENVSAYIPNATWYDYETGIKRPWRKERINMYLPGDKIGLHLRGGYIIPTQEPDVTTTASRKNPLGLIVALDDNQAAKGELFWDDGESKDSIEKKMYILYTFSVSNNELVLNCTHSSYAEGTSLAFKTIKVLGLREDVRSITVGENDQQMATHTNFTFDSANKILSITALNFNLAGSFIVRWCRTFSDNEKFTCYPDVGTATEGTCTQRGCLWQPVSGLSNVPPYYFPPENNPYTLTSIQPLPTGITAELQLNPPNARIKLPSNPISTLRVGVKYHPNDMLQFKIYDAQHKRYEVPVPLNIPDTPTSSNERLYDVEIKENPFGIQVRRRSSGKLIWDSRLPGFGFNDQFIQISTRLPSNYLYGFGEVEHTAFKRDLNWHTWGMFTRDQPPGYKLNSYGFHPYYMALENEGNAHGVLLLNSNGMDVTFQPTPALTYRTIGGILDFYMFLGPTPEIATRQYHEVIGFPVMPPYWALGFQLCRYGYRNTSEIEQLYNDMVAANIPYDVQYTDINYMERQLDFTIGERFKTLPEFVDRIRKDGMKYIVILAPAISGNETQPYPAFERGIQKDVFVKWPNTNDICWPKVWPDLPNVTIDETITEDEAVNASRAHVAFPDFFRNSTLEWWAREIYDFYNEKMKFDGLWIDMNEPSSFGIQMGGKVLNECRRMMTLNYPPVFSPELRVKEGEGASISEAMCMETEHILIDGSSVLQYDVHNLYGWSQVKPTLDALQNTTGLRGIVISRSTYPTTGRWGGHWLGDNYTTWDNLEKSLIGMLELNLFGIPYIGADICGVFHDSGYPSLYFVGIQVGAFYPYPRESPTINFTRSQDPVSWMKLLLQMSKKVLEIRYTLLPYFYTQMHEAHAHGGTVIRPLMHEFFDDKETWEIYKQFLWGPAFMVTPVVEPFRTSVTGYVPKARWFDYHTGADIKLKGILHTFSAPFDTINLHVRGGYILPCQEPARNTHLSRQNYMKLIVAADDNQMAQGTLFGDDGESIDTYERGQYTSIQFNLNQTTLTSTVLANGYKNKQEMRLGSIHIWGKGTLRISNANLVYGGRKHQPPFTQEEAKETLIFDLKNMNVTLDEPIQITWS
Rice α-Glucosidase, sequence (Q653V7 34-885): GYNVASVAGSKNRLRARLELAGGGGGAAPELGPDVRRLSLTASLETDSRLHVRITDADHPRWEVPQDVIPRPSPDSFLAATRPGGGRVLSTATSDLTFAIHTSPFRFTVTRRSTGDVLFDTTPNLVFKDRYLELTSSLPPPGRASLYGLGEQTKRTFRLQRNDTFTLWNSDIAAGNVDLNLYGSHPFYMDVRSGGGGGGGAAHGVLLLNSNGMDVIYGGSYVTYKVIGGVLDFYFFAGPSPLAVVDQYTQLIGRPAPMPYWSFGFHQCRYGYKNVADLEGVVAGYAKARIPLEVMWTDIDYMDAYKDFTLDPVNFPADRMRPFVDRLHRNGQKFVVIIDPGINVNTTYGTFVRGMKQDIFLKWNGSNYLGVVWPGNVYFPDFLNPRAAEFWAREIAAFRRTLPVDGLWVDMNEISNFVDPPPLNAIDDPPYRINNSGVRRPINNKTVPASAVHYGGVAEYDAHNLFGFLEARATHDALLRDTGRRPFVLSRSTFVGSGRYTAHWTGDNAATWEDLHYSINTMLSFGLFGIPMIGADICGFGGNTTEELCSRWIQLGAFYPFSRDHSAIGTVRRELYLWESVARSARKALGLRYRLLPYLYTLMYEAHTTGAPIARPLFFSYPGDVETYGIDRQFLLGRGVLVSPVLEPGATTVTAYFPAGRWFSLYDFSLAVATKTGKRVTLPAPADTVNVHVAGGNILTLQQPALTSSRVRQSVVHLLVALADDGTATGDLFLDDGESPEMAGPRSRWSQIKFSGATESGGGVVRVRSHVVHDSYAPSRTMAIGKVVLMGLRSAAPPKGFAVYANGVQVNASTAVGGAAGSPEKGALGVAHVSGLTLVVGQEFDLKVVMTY

`C[C@]1(CO)NC[C@@H](O)[C@@H]1O` [4-C-Me-DAB 1D, 1,4-dideoxy-1,4-imino-4-C-methyl-D-arabinitol]: the IC50 in assay [1] was greater than 1000 µM; in assay [3], greater than 1000 µM; in assay [4], greater than 1000 µM; in assay [5], greater than 1000 µM; in [6], 0.74 µM; in assay [7], 7.1 µM. For the same molecule, in assay [8], the IC50 was 3.4 µM. Moreover, the “Corrector effect on CFTR function” value in [2] was “Neither of the 4-C-methyl pyrrolidines 1D and 1L had any corrector effect”. For the same molecule, the “Inhibition of glycogen phosphorylase (in words)” value (shortened to “Inhibition … (in words)”) in [4] was “no significant inhibition”.

Regarding `C[C@@]1(CO)NC[C@H](O)[C@H]1O` [4-C-Me-LAB 1L], the IC50 was greater than 1000 µM in assay [1]; greater than 1000 µM in [3]; greater than 1000 µM in assay [4]; greater than 1000 µM in [5]; 2.4 µM in [6]; 5.8 µM in assay [7]. 5.1 µM corresponded to half-maximal inhibition in assay [8] (IC50). In [2], the “Corrector effect on CFTR function” value is “Neither of the 4-C-methyl pyrrolidines 1D and 1L had any corrector effect”. Also, in [4], the “Inhibition … (in words)” value is on record as “no significant inhibition”.

For `OC[C@@]1(O)CNC[C@H]1O` [isoDAB 2D], the IC50 in assay [1] was greater than 1000 µM; in assay [3] it was greater than 1000 µM; in assay [4], greater than 1000 µM; in assay [5], greater than 1000 µM; in assay [6] it was 24 µM; in assay [7], 41 µM. The molecule further displayed an IC50 in assay [8] of 20 µM. Further, in assay [4], the “Inhibition … (in words)” value is listed as “no significant inhibition”.

On to `OC[C@]1(O)CNC[C@@H]1O` [isoLAB 2L], for which the IC50 in [1], in assay [3], in [4], in assay [5], in [6] and in [7] was greater than 1000 µM in each case. Besides, in assay [8], the IC50 is greater than 1000 µM. In addition, in assay [4], the “Inhibition … (in words)” value is given as “no significant inhibition”. Further, in assay [9], the “Inhibition of ER glucosidases” value is listed as “neither of which showed any inhibition”. In addition, the “Rescue of the defective F508del-CFTR function” value in [10] is given as “significant rescue; also recorded: partially rescues”.
